Columns and labels:
human subjects = test: Forearm blood flow (FBF) after infusion into forearm arteries of human subjects; assay type: in vivo; conditions: for forearm blood flow (FBF) before infusion (baseline): baseline value before forearm artery infusion; for forearm blood flow (vasodilation) at calculated equimolar concentrations: forearm artery infusion, calculated equimolar 1 μmol/min
Description: Blood pressure, heart rate, and respiration were continuously monitored throughout the administration. A physician was present throughout the study and monitored for side effects. At the end of each infusion period, the forearm blood flow (FBF) of each subject was then measured by standard techniques.
A physician was present, and the subject was monitored throughout the infusion, as in Example 1.

[1] = in pharmaceutically acceptable carriers; cited from earlier work
[2] = uptake by nucleoside transporter in red blood cells; cited from earlier work
[3] = forearm artery infusion 0.125 mg/min for 15 minutes

SMILES | vasodilation compared with adenosine at calculated equimolar concentrations (human subjects; 1 μmol/min, p<0.02) | forearm blood flow (FBF) before infusion (baseline) (human subjects) [ml/100 ml/min] | forearm blood flow (FBF) at end of infusion (human subjects; [3]) [ml/100 ml/min] | forearm blood flow (FBF) at end of infusion (human subjects; forearm artery infusion 0.5 mg/min for 15 minutes) [ml/100 ml/min] | forearm blood flow (vasodilation) at calculated equimolar concentrations (human subjects) [ml/100 ml/min] | limit of solubility [1] | half-life in blood [2]
Nc1ncnc2c1ncn2[C@@H]1O[C@H](COP(=O)(O)O)[C@@H](O)[C@H]1O [AMP, Adenosine 5′-monophosphate] | significantly greater vasodilation | 3.8±0.5 | 16.3±1.6 | 20.7±1.8 | 19.4±1.8 | approximately 400 mg/ml | –
Nc1ncnc2c1ncn2[C@@H]1O[C@H](CO)[C@@H](O)[C@H]1O [adenosine, reference compound] | – | 3.1±0.2 | 14.2±2.0 | – | 15.6±1.9 | approximately 5 mg/ml | less than 1 second

Source: patent US20060079479A1, “Methods of inducing vasodilation” (priority 2004, published 2006)
